{"source": "patent US20230406883A1", "about": "“COMPOUNDS AND THEIR USE IN TREATMENT OF TACHYKININ RECEPTOR MEDIATED DISORDERS” (Embark Biotech ApS, priority 2020, published 2023)", "key": {"[1]": {"test": "Intraperitoneal glucose tolerance test (ipGTT) in DIO mice", "type": "in vivo", "conditions": "325 nmol/kg s.c. once, test 24 hours after treatment", "protocol": "Glucose tolerance test: The effect on glucose tolerance was determined using intraperitoneal glucose tolerance test (ipGTT) 24 hours after single subcutaneous injection of NK2R-selective analogue in DIO mice. At day of experimentation, mice were fasted four hours prior to receiving 1 g/kg glucose diluted in saline solution ([…]) by intraperitoneal injection. Change in glucose was monitored using glucometer."}, "hNK2R": {"biological_target": "T1, hNK2R (Homo sapiens, UniProt P21452)", "T1 construct": "host or cells: COS-7", "T1 sequence (P21452 1-398)": "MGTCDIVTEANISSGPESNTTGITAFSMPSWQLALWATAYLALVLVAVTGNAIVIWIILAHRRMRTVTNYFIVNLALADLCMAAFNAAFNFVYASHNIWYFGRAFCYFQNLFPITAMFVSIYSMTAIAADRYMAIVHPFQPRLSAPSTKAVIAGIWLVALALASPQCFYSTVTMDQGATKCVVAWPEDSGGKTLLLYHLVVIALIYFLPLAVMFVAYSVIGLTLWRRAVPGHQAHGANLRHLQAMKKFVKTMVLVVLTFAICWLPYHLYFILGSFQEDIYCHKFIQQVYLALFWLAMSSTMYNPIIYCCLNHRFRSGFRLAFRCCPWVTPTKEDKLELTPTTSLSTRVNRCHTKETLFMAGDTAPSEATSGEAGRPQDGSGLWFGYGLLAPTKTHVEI", "test": "Indirect human serum albumin binding by IP3 assay, 0.2% ovalbumin vs 1% HSA", "type": "cell-based", "conditions": "for hNK2R, Albumin binding Efficacy (%)-ovalbumin: 0.2% ovalbumin; for hNK2R, Albumin binding Efficacy (%)-1% human serum albumin / EC50: 1% HSA; for EC50: read-out: hNK2R, Albumin binding EC50 (nM)-1% human serum albumin", "protocol": "Agonist-induced G-protein coupled receptor (GPCR) activation was measured by an Inositol-1,4,5-Trisphosphate [^3H] Radioreceptor Assay (IPs Assay). Assays were carried out using COS-7 cells transiently transfected by calcium phosphate transfection with a vector pcDNA3.1(+) encoding one of the indicated receptors (Genscript). Briefly, DNA mixed with CaCl2 (2 M) and TE-buffer (10 mM Tris-HCl, 1 mM EDTA, pH 7.5) was dropwise added to 2×HBS (50 mM HEPES, 280 mM NaCl, 1.5 mM NaH2PO4, pH 7.2) and incubated for 45 min at room temperature (22±2° C.). The mixture and a final concentration of 100 μM Chloroquine were added to the cells and left to incubate for 5 hours at 37° C. under standard cell culture conditions (10% CO2) before changing medium to fresh medium containing 5 μl/mL Myo-[2-^3H(N)]-inositol (labeling medium).\nThe indirect HSA binding IP3 assay takes advantage of the tachykinin receptors' ability to induce production of the inositol trisphosphate (IP3) second messenger upon agonist (ligand) binding on receptor expressing cells following an initial ^3H-inositol labeling period. The assay relies on the assumption that high peptide HSA binding will result in low receptor-mediated production of the second messenger IP3. Thus, the assay is an indirect assessment HSA binding.\nAssay solutions used: Wash buffer (HBSS), Assay buffer 0.2% OvAlb (HBSS+10 mM LiCl and 0,2% w/v ovalbumin) or Assay buffer 1% HSA (HBSS+10 mM LiCl and 1% w/v HSA), Lysis buffer (10 mM formic acid), and SPA YSI beads (12.5 mg/ml in H2O). The assay was performed the day after transfection. Briefly, labelling medium was aspirated, and plates were washed ×1 in wash buffer before adding 100 μl assay buffer 0.2% OvAlb or assay buffer 1% HSA, pre-incubated for 30 min followed by 120 min incubation with agonist, both at 37° C. After incubation, plates were immediately placed on ice and the incubation medium was aspirated and 40 μl of 10 mM formic acid per well was added. Plates were incubated for at least 30 min on ice. 60 μl (1 mg/well) SPA YSI beads/well was pipetted into a solid white 96 wells plate and 35 μl of the lysis solution was transferred to the plate before covering plates with seal cover and shaking for 10 min. (max speed). Centrifuge plates and leave for 8 hours at room temperature before counting the plates in a MicroBeta plate counter (Perkin Elmer)."}, "[2]": {"test": "Intraperitoneal insulin tolerance test (ipITT) in DIO mice", "type": "in vivo", "conditions": "325 nmol/kg s.c. once, test 24 hours after treatment", "protocol": "Insulin tolerance test: The effect on insulin tolerance was determined using intraperitoneal insulin tolerance test (ipITT) 24 hours after single subcutaneous injection of NK2R-selective analogue in DIO mice. At day of experimentation, mice were fasted two hours prior to receiving 1.5 U/kg insulin diluted in saline solution (0.2 mL/kg) by intraperitoneal injection. Change in glucose was monitored using glucometer."}, "[3]": {"test": "Loperamide-induced dysfunctional voiding test", "type": "in vivo", "conditions": "lean wild-type mice, Loperamide 5 mg/kg, compound 130, 260, 325 nmol/kg s.c.", "protocol": "Dysfunctional voiding test: To investigate the effect on dysfunctional voiding, constipation was induced in lean wild-type, male and female, mice using Loperamide (5 mg/kg). 30 minutes after gavage, mice were subcutaneously dosed with either vehicle, 130, 260 and for males also 325 nmol/kg of EB344. 6 hours post Loperamide gavage, mice were removed from the cage and number of feces pellets were counted."}, "[4]": {"test": "Energy expenditure screening by indirect calorimetry in diet-induced obese mice", "type": "in vivo", "conditions": "DIO mice, 0.5 mg/kg s.c., increase over vehicle", "protocol": "Indirect calorimetry was used to evaluate the ability of individual peptide analogues to dose-dependently increase energy expenditure (EE) we used metabolic cages and indirect calorimetry measured by the Promethion system. To this end, oxygen consumption was used as a surrogate measure for EE. Substrate preference (fat or carbohydrate) was evaluated using the respiratory exchange ratio (RER). In parallel, behavioral information such as walking distance and water and food intake were recorded.\nPrior to experimentation, DIO mice were transferred to habituation cages for at least 10 days (5 days outside and at least 5 days in the Sable Systems gas analyzer module) to acclimatize. For all in vivo compound tests for EE evaluation, mice received subcutaneous injections between 2 and 4 pm.\nEnergy expenditure screening: After habituation, mice were subcutaneously injected with 0.5 mg/kg peptide analogue in a volume of 2 ml/kg. Mice were injected q.a.d. (quaque altera die) and received a total of two injections. EE was evaluated and increase over vehicle was calculated as percent of mean oxygen consumption over a 30-hour period after injection. Prior to injection peptide analogues were dissolved to 0.25 mg/ml in in vivo buffer."}}, "note": "Numbered stars: 1 amine (or outer) side, 2 acyl side, 3 side chain; on linkers, the order of the positions; unused ones are H or OH. Square brackets hold non-standard residues; d marks the D form. Peptide text beside a SMILES is read from it. * marks the point of attachment. C18 diacid = O=C(O)CCCCCCCCCCCCCCCCC(=O)*; γGlu = O=C(O)[C@H](CCC(=O)[*:2])N[*:1]; NMeL = CN[C@@H](CC(C)C)C(=O)O; hSer = N[C@@H](CCO)C(=O)O; Nle = CCCC[C@H](N)C(=O)O; AEEA = NCCOCCOCC(=O)O"}
{"smiles": "COCC[C@H](NC(=O)[C@H](CC(C)C)N(C)C(=O)CNC(=O)[C@@H](NC(=O)[C@H](Cc1ccc(O)cc1)NC(=O)[C@H](CCCCN)NC(=O)[C@H](CC(=O)O)NC(=O)COCCOCCNC(=O)COCCOCCNC(=O)CC[C@H](NC(=O)CCCCCCCCCCCCCCCCC(=O)O)C(=O)O)C(C)C)C(N)=O", "note": "[compound 344, *Asp;Lys;Tyr;Val;Gly;NmLeu;Metox;NH2] ({C18 diacid-γGlu-AEEA-AEEA}-DKYVG[NMeL][hSer](Me)-NH2)", "values": [{"measurement": "Glucose tolerance (ipGTT)", "setting": "[1]", "result": "improved both glucose and insulin tolerance"}, {"measurement": "hNK2R, Albumin binding Efficacy (%)-ovalbumin", "setting": "hNK2R", "result": 95, "unit": "%"}, {"measurement": "hNK2R, Albumin binding Efficacy (%)-1% human serum albumin", "setting": "hNK2R", "result": 60, "unit": "%"}, {"measurement": "EC50", "setting": "hNK2R", "result": 260, "unit": "nM"}, {"measurement": "Insulin tolerance (ipITT)", "setting": "[2]", "result": "improved both glucose and insulin tolerance"}, {"measurement": "Loperamide-induced dysfunctional voiding (number of feces pellets during six hours)", "setting": "[3]", "result": "improved Loperamide-induced dysfunctional voiding in a dose-dependent manner"}]}
{"smiles": "CCCC[C@H](NC(=O)[C@H](CC(C)C)N(C)C(=O)CNC(=O)[C@@H](NC(=O)[C@H](Cc1ccc(O)cc1)NC(=O)[C@H](CCCCN)NC(=O)[C@H](CC(=O)O)NC(=O)COCCOCCNC(=O)COCCOCCNC(=O)CC[C@H](NC(=O)CCCCCCCCCCCCCCCCC(=O)O)C(=O)O)C(C)C)C(N)=O", "note": "[compound 305, *Asp;Lys;Tyr;Val;Gly;NmLeu;Nle;NH2] ({C18 diacid-γGlu-AEEA-AEEA}-DKYVG[NMeL][Nle]-NH2)", "values": [{"measurement": "hNK2R, Albumin binding Efficacy (%)-ovalbumin", "setting": "hNK2R", "result": 83, "unit": "%"}, {"measurement": "hNK2R, Albumin binding Efficacy (%)-1% human serum albumin", "setting": "hNK2R", "result": "45-51%"}, {"measurement": "EC50", "setting": "hNK2R", "result": 260, "unit": "nM"}, {"measurement": "Energy expenditure (percent of vehicle; based on 30 h average vO2)", "setting": "[4]", "result": "9% of vehicle"}]}
